The structures appear in SMILES notation. Active and inactive are the calls of the source. No cut-off for these calls is given here.

Assay [1] relates to Mus musculus. In words: Antiinflammatory activity against TPA-induced ear edema in mouse assessed as ear thickness, sc administered 30 mins after TPA challenge measured after 2 to 48 hrs. It is filed as functional, organism-based.
In assay [2] the test system is Mus musculus. In words: Antiinflammatory activity against TPA-induced ear edema in mouse assessed as ear thickness at 0.088 to 1.77 umol/ear, sc administered 30 mins after TPA challenge measured after 2 to 48 hrs. Type of assay: functional, organism-based.
The test system of assay [3] is Mus musculus. In words: Antiinflammatory activity against TPA-induced ear edema in mouse assessed as ear thickness at 0.22 umol/ear, topically administered 30 mins after TPA challenge measured after 8 hrs.
Assay [4] concerns Mus musculus. Nature of the assay: Antiinflammatory activity against TPA-induced ear edema in mouse assessed as ear thickness at 0.91 umol/ear, sc administered 30 mins after TPA challenge measured after 2 to 48 hrs. It is filed as functional.
Assay [5] relates to Mus musculus. Nature of the assay: Antiinflammatory activity against TPA-induced ear edema in mouse assessed as ear thickness at 0.90 umol/ear, sc administered 30 mins after TPA challenge measured after 2 to 48 hrs. It is filed as functional, organism-based.
The subject of assay [6] is Mus musculus. In words: Antiinflammatory activity against TPA-induced ear edema in mouse assessed as ear thickness at 0.023 to 0.91 umol/ear, sc administered 30 mins after TPA challenge measured after 2 to 48 hrs. Type of assay: functional, organism-based.
Assay [7] concerns Mus musculus. In words: Antiinflammatory activity against TPA-induced ear edema in mouse assessed as ear thickness at 1.83 umol/ear, sc administered 30 mins after TPA challenge measured after 2 to 48 hrs. Type of assay: functional, organism-based.

As for `C[C@@]1(CCc2ccoc2)[C@H](COC(=O)c2ccccc2)CC[C@]2(C)C(C(=O)O)=C[C@H](O)C[C@H]12` (relative stereo), the result with Mus musculus [1] and in the assay with Mus musculus [2] was Active. For the same molecule, the “inhibition (INH)” value with Mus musculus [3] turned out to be 70.2%.

On to `C[C@@H]1CC[C@]2(C)C(C(=O)O)=C[C@H](OC(=O)c3ccccc3)C[C@@H]2[C@]1(C)CCc1ccoc1` (relative stereo), for which the “inhibition (INH)” value in the assay with Mus musculus [4] is 76.4%. In the case of `CCC(=O)OCC(=O)[C@@]1(OC(=O)CC)[C@@H](C)C[C@H]2[C@@H]3CCC4=CC(=O)C=C[C@]4(C)[C@@]3(F)[C@@H](O)C[C@@]21C`, the inhibition entry with Mus musculus [5] is “Active”.

On to `C[C@@]1(CCc2ccoc2)[C@H](COC(=O)c2ccccc2)CC[C@]2(C)C(C(=O)O)=CCC[C@H]12` (relative stereo), for which the result in the assay with Mus musculus [6] was inactive. Moreover, the result in the assay on Mus musculus [7] was Active.

Values taken from ChEMBL document CHEMBL1772958, “In vivo activity of benzoyl ester clerodane diterpenoid derivatives from Dodonaea polyandra” (2011).
